How the values were obtained:
Assay in all cases: cells
HCC70 = assay type: functional, cell-based, Homo sapiens; details: Homo sapiens, HCC70;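 note: cell viability assay measuring how strongly the compound suppresses proliferation of HCC70 cells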
Description: SANGER: Inhibition of human HCC70 cell growth in a cell viability assay.

LNCaP-Clone-FGC = assay type: functional, cell-based, Homo sapiens; details: Homo sapiens, LNCaP-Clone-FGC
Description: SANGER: Inhibition of human LNCaP-Clone-FGC cell growth in a cell viability assay.

NCI-H2029 = assay type: functional, cell-based; details: Homo sapiens;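 note: Read-out is a viability assay on the cultured cells, and IC50 is the concentration that suppresses cell growth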
Description: SANGER: Inhibition of human NCI-H2029 cell growth in a cell viability assay.

MC-IXC = assay type: functional, cell-based, Homo sapiens; details: Homo sapiens, MC-IXC;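 note: growth inhibition of MC-IXC cells, read out with a cell viability assay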
Description: SANGER: Inhibition of human MC-IXC cell growth in a cell viability assay.

L-428 = assay type: functional, cell-based; details: Homo sapiens
Description: SANGER: Inhibition of human L-428 cell growth in a cell viability assay.

SW900 = assay type: functional, cell-based; details: Homo sapiens;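 note: IC50 is the concentration that inhibits SW900 cell growth, measured by a cell viability assay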
Description: SANGER: Inhibition of human SW900 cell growth in a cell viability assay.

PANC-08-13 = assay type: functional, cell-based, Homo sapiens; details: Homo sapiens, PANC-08-13;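 note: cell growth inhibition, measured with a cell viability assay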
Description: SANGER: Inhibition of human PANC-08-13 cell growth in a cell viability assay.

SBC-1 = assay type: functional, cell-based; details: Homo sapiens;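 note: cell viability assay measuring growth inhibition of the SBC-1 cell line, IC50 being the concentration that halves growth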
Description: SANGER: Inhibition of human SBC-1 cell growth in a cell viability assay.

TGBC11TKB = assay type: functional, cell-based; details: Homo sapiens;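 note: growth inhibition of human TGBC11TKB cells, measured by a cell viability assay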
Description: SANGER: Inhibition of human TGBC11TKB cell growth in a cell viability assay.

GCIY = assay type: functional, cell-based, Homo sapiens; details: Homo sapiens, GCIY;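 note: growth inhibition of the human GCIY cell line, read out by a cell viability assay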
Description: SANGER: Inhibition of human GCIY cell growth in a cell viability assay.

MOLT-13 = assay type: functional, cell-based; details: Homo sapiens;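 note: IC50 for suppression of MOLT-13 cell growth, read out with a cell viability assay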
Description: SANGER: Inhibition of human MOLT-13 cell growth in a cell viability assay.

NCI-H2228 = assay type: functional, cell-based, Homo sapiens; details: Homo sapiens, NCI-H2228;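 note: growth inhibition of human NCI-H2228 cells, read out by a cell viability assay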
Description: SANGER: Inhibition of human NCI-H2228 cell growth in a cell viability assay.

HCT-116 = assay type: functional, cell-based, Homo sapiens; details: Homo sapiens, HCT-116
Description: SANGER: Inhibition of human HCT-116 cell growth in a cell viability assay.

MZ1-PC = assay type: functional, cell-based, Homo sapiens; details: Homo sapiens, MZ1-PC;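 note: cell viability assay measuring growth inhibition of human MZ1-PC cells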
Description: SANGER: Inhibition of human MZ1-PC cell growth in a cell viability assay.

CFPAC-1 = assay type: functional, cell-based; details: Homo sapiens;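 note: cell viability readout used to gauge suppression of CFPAC-1 cell proliferation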
Description: SANGER: Inhibition of human CFPAC-1 cell growth in a cell viability assay.

BE-13 = assay type: functional, cell-based; details: Homo sapiens;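 note: growth inhibition of human BE-13 cells, measured with a cell viability assay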
Description: SANGER: Inhibition of human BE-13 cell growth in a cell viability assay.

NCI-H1666 = assay type: functional, cell-based; details: Homo sapiens;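 note: growth inhibition of the cell line, read out with a cell viability assay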
Description: SANGER: Inhibition of human NCI-H1666 cell growth in a cell viability assay.

MS-1 = assay type: functional, cell-based; details: Homo sapiens;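 note: growth inhibition of MS-1 cells, read out by cell viability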
Description: SANGER: Inhibition of human MS-1 cell growth in a cell viability assay.

SW756 = assay type: functional, cell-based, Homo sapiens; details: Homo sapiens, SW756;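 note: growth inhibition of human SW756 cells, read out with a cell viability assay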
Description: SANGER: Inhibition of human SW756 cell growth in a cell viability assay.

SK-N-AS = assay type: functional, cell-based, Homo sapiens; details: Homo sapiens, SK-N-AS;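 note: growth inhibition of human SK-N-AS cells, measured with a cell viability assay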
Description: SANGER: Inhibition of human SK-N-AS cell growth in a cell viability assay.

RPMI-8226 = assay type: functional, cell-based; details: Homo sapiens
Description: SANGER: Inhibition of human RPMI-8226 cell growth in a cell viability assay.

SJRH30 = assay type: functional, cell-based; details: Homo sapiens;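 note: growth inhibition of human SJRH30 cells, read out with a cell viability assay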
Description: SANGER: Inhibition of human SJRH30 cell growth in a cell viability assay.

LS-123 = assay type: functional, cell-based, Homo sapiens; details: Homo sapiens, LS-123
Description: SANGER: Inhibition of human LS-123 cell growth in a cell viability assay.

RD = assay type: functional, cell-based, Homo sapiens; details: Homo sapiens, RD
Description: SANGER: Inhibition of human RD cell growth in a cell viability assay.

SNU-423 = assay type: functional, cell-based, Homo sapiens; details: Homo sapiens, SNU-423
Description: SANGER: Inhibition of human SNU-423 cell growth in a cell viability assay.

LU-99A = assay type: functional, cell-based, Homo sapiens; details: Homo sapiens, LU-99A;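 note: growth inhibition of LU-99A cells, read out with a cell viability assay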
Description: SANGER: Inhibition of human LU-99A cell growth in a cell viability assay.

KU-19-19 = assay type: functional, cell-based, Homo sapiens; details: Homo sapiens, KU-19-19
Description: SANGER: Inhibition of human KU-19-19 cell growth in a cell viability assay.

NCI-H1048 = assay type: functional, cell-based; details: Homo sapiens;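 note: growth inhibition of human NCI-H1048 cells, read out with a cell viability assay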
Description: SANGER: Inhibition of human NCI-H1048 cell growth in a cell viability assay.

NY = assay type: functional, cell-based, Homo sapiens; details: Homo sapiens, NY
Description: SANGER: Inhibition of human NY cell growth in a cell viability assay.

H9 = assay type: functional, cell-based; details: Homo sapiens
Description: SANGER: Inhibition of human H9 cell growth in a cell viability assay.

D-423MG = assay type: functional, cell-based; details: Homo sapiens
Description: SANGER: Inhibition of human D-423MG cell growth in a cell viability assay.

ECC10 = assay type: functional, cell-based; details: Homo sapiens;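 note: growth inhibition of ECC10 cells, read out by a cell viability assay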
Description: SANGER: Inhibition of human ECC10 cell growth in a cell viability assay.

LB831-BLC = assay type: functional, cell-based, Homo sapiens; details: Homo sapiens, LB831-BLC;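 note: growth inhibition of LB831-BLC cells, read out with a cell viability assay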
Description: SANGER: Inhibition of human LB831-BLC cell growth in a cell viability assay.

Row | SMILES | IC50 (HCC70) [µM] | IC50 (LNCaP-Clone-FGC) [µM] | IC50 (NCI-H2029) [µM] | IC50 (MC-IXC) [µM] | IC50 (L-428) [µM] | IC50 (SW900) [µM] | IC50 (PANC-08-13) [µM] | IC50 (SBC-1) [µM] | IC50 (TGBC11TKB) [µM] | IC50 (GCIY) [µM] | IC50 (MOLT-13) [µM] | IC50 (NCI-H2228) [µM] | IC50 (HCT-116) [µM] | IC50 (MZ1-PC) [µM] | IC50 (CFPAC-1) [µM] | IC50 (BE-13) [µM] | IC50 (NCI-H1666) [µM] | IC50 (MS-1) [µM] | IC50 (SW756) [µM] | IC50 (SK-N-AS) [µM] | further results
1 | COc1ccc(C2=N[C@@H](c3ccc(Cl)cc3)[C@@H](c3ccc(Cl)cc3)N2C(=O)N2CCNC(=O)C2)c(OC(C)C)c1 [NUTLIN-3] | > 8 | 2.64 | > 8 | > 8 | > 8 | > 8 | > 8 | > 8 | > 8 | > 8 | > 8 | > 8 | 3.3 | > 8 | > 8 | > 8 | > 8 | > 8 | > 8 | > 8 | IC50 (RPMI-8226): > 8 µM; IC50 (SJRH30): > 8 µM; IC50 (LS-123): > 8 µM; IC50 (RD): > 8 µM; IC50 (SNU-423): > 8 µM; IC50 (LU-99A): > 8 µM; IC50 (KU-19-19): > 8 µM; IC50 (NCI-H1048): > 8 µM; IC50 (NY): > 8 µM; IC50 (H9): > 8 µM; IC50 (D-423MG): > 8 µM; IC50 (ECC10): > 8 µM; IC50 (LB831-BLC): > 8 µM
2 | O=C(c1cc(Cc2n[nH]c(=O)c3ccccc23)ccc1F)N1CCN(C(=O)C2CC2)CC1 [OLAPARIB] | > 5 | > 5 | > 5 | 3.63 | > 5 | > 5 | > 5 | 4.81 | > 5 | > 5 | > 5 | > 5 | > 5 | > 5 | > 5 | > 5 | > 5 | > 5 | > 5 | > 5 | IC50 (RPMI-8226): > 5 µM; IC50 (LS-123): > 5 µM; IC50 (RD): > 5 µM; IC50 (SNU-423): > 5 µM; IC50 (LU-99A): > 5 µM; IC50 (KU-19-19): > 5 µM; IC50 (NCI-H1048): > 5 µM; IC50 (NY): > 5 µM; IC50 (H9): > 5 µM; IC50 (D-423MG): > 5 µM; IC50 (ECC10): > 5 µM; IC50 (LB831-BLC): > 5 µM
3 | CC(=O)O[C@@]12CO[C@@H]1C[C@H](O)[C@@]1(C)C(=O)[C@H](O)C3=C(C)[C@@H](OC(=O)[C@H](O)[C@@H](NC(=O)OC(C)(C)C)c4ccccc4)C[C@@](O)([C@@H](OC(=O)c4ccccc4)[C@H]21)C3(C)C [DOCETAXEL] | 0.00277 | 0.0011 | > 0.01 | 0.000479 | > 0.01 | 0.00755 | > 0.01 | 0.00043 | 0.00469 | > 0.01 | > 0.01 | 0.00725 | 0.00181 | 0.00118 | > 0.01 | 0.00393 | 0.00505 | > 0.01 | 0.00216 | 0.00535 | IC50 (RPMI-8226): 0.00497 µM; IC50 (LS-123): 0.00425 µM; IC50 (RD): 0.004 µM; IC50 (SNU-423): 0.00857 µM; IC50 (LU-99A): > 0.01 µM; IC50 (KU-19-19): > 0.01 µM; IC50 (NCI-H1048): 0.00192 µM; IC50 (NY): > 0.01 µM; IC50 (H9): 0.00124 µM; IC50 (D-423MG): 0.0013 µM; IC50 (ECC10): 0.0046 µM; IC50 (LB831-BLC): 0.00148 µM
4 | O=C1N=C(NCc2cccs2)S/C1=C\c1ccc2ncccc2c1 | > 5 | > 5 | > 5 | > 5 | > 5 | > 5 | > 5 | > 5 | > 5 | > 5 | > 5 | > 5 | > 5 | > 5 | > 5 | > 5 | > 5 | > 5 | > 5 | > 5 | IC50 (RPMI-8226): > 5 µM; IC50 (SJRH30): > 5 µM; IC50 (LS-123): > 5 µM; IC50 (RD): > 5 µM; IC50 (SNU-423): > 5 µM; IC50 (LU-99A): > 5 µM; IC50 (KU-19-19): > 5 µM; IC50 (NCI-H1048): > 5 µM; IC50 (NY): > 5 µM; IC50 (H9): > 5 µM; IC50 (D-423MG): > 5 µM; IC50 (ECC10): > 5 µM; IC50 (LB831-BLC): > 5 µM
5 | COc1ccc(-c2ccc3c(N4CCOC[C@@H]4C)nc(N4CCOC[C@@H]4C)nc3n2)cc1CO [AZD-8055] | > 2 | 0.353 | > 2 | 0.727 | > 2 | 1.75 | 0.574 | 0.0458 | > 2 | 0.458 | 0.665 | 1.27 | 1.43 | > 2 | > 2 | 1.12 | > 2 | > 2 | > 2 | > 2 | IC50 (RPMI-8226): 0.286 µM; IC50 (SJRH30): > 2 µM; IC50 (LS-123): 1.25 µM; IC50 (RD): > 2 µM; IC50 (SNU-423): 0.814 µM; IC50 (LU-99A): 0.776 µM; IC50 (KU-19-19): 0.851 µM; IC50 (NCI-H1048): 0.586 µM; IC50 (NY): > 2 µM; IC50 (H9): 0.0669 µM; IC50 (D-423MG): 1.03 µM; IC50 (ECC10): 0.35 µM; IC50 (LB831-BLC): 1.39 µM
6 | COc1cc(F)c(F)c(Nc2ccc(I)cc2F)c1NS(=O)(=O)C1(CC(O)CO)CC1 (stereo unspecified) | > 5 | > 5 | > 5 | > 5 | > 5 | > 5 | > 5 | > 5 | > 5 | 1.18 | > 5 | > 5 | 0.524 | 1.34 | > 5 | > 5 | 0.889 | > 5 | 1.23 | 0.0433 | IC50 (RPMI-8226): 4.51 µM; IC50 (SJRH30): > 5 µM; IC50 (LS-123): 2.51 µM; IC50 (RD): 3.28 µM; IC50 (SNU-423): 4.93 µM; IC50 (LU-99A): 3.96 µM; IC50 (KU-19-19): 0.366 µM; IC50 (NCI-H1048): > 5 µM; IC50 (NY): > 5 µM; IC50 (H9): 0.0201 µM; IC50 (D-423MG): > 5 µM; IC50 (ECC10): 1.39 µM; IC50 (LB831-BLC): > 5 µM
